Entries after “also recorded” stand apart in the source; their conditions may differ.
Assays:
R1-RXFP1 and R2-RXFP1 = assay: Direct HTRF cAMP assay, rabbit R1-RXFP1 and R2-RXFP1; format: cell-based, European rabbit (Oryctolagus cuniculus); set-up: key to Activation of RXFP1 receptors: *: Weak; **: intermediate; ***: strong activation of the receptor
Description: The human, mouse, macaque, and pig RXFP1 cDNA constructs in baculovirus BacMam mammalian expression vector (Invitrogen, Carlsbad, CA, USA) were synthesized at the Eukaryotic Expression Group-Protein Expression laboratory (NCI, Frederick, MD, USA). The PCR primers for RT-PCR were designed to cover the full-length sequence of the open reading frame (ORF). PCR amplifications were performed with PfuUltra High-Fidelity DNA polymerase (Agilent Technologies, Santa Clara, CA, USA). Guinea pig RXFP1 (G-RXFP1) was amplified from guinea pig ovarian cDNA (Zyagen, San Diego, CA, USA). Rabbit RXFP1 (R1-RXFP1 and R2-RXFP1) cDNAs were amplified from rabbit uterus cDNA (Zyagen). All cloning was performed using the In-Fusion® HD Cloning Kit (Clontech Laboratories, Mountain View, CA, USA). Rabbit and guinea pig RXFP1s were cloned into pCR3.1 mammalian expression vector (Invitrogen). In order to study RXFP1 surface expression, rabbit cDNAs were cloned into pcDNA3.1™/Zeo+ mammalian expression vector (Invitrogen), which contained an N-terminal FLAG-tag and a bovine prolactin signal sequence (3). […] To make chimeric clones, the human, guinea pig, and rabbit plasmid were used as templates to produce PCR amplicons, which were then used for overlapping PCR and subsequent cloning with the In-Fusion kit. The chimeric guinea pig/human GH-RXFP1 construct contains guinea pig RXFP1 cDNA (G-RXFP1, 1–1499 bp) encoding the ectodomain, TM1, TM2, and part of TM3 (amino acids 1–499 of G-RXFP1), and human RXFP1 (hRXFP1, 1509–2274 bp) encoding TM3 to the C-terminal tail of the receptor (amino acids 503–757 of hRXFP1) (Figure 1A). The recombinant chimeric human–rabbit HR-RXFP1 was made with the 5′-part of the hRXFP1 sequence (1–972 bp, LDLa-LRR9, 1–324 aa), with the remainder being the rabbit RXFP1 sequence (973–2277 bp, LRR9-C-terminal tail, 325–759 aa) (Figure 1A). The recombinant chimeric rabbit–human R1H-RXFP1 or R2H-RXFP1 contains the N-terminal rabbit RXFP1 sequence (1–972 bp for R1-RXFP1 or 975 bp for R2-RXFP1), with the remaining sequence being hRXFP1 (973–2274) (Figure 1A). R1- and R2-RXFP1 denote two variants of rabbit RXFP1 cDNA. All numbers correspond to the full-length cDNAs with the first nucleotide of the ORF.
HEK293T cell transient transfections were performed using Lipofectamine 2000 transfection reagent (Life Technologies, Grand Island, NY, USA) according to the manufacturer’s instructions. Cells transiently expressing the RXFP1 receptors were used within 48 h of transfection. Each construct was tested at least three times. For cell-conditioned media stimulation, HEK293T cells were transfected with the rabbit RLN construct (SQ10) or an empty pCR3.1 vector, and cells were cultured for 24 h. The media was used to stimulate HEK293T cells transfected with the RXFP1 receptors.
Direct measurement of cAMP production was performed using the HTRF cAMP HiRange kit (CisBio, Bedford, MA, USA). HEK293T cells transiently transfected with different RXFP1 receptors were stimulated with various concentrations of RLN peptides or ML290 for 60 min at 37°C, 5% CO2, after which, two HTRF detection reagents (diluted according to assay kit directions in HTRF lysis buffer) were added. The plates were incubated for 60 min at room temperature, and the signal was read on a FLUOstar Omega (BMG Labtech, Cary, NC, USA) plate reader. cAMP levels were calculated according to the manufacturer’s instructions against a standard curve. Statistical processing of the data was performed using GraphPad Prism software.

macaque RXFP1 = assay: CRE-Luc BacMam luciferase assay, macaque RXFP1; format: cell-based, rhesus macaque (Macaca mullata); set-up: key to Activation of RXFP1 receptors: *: Weak; **: intermediate; ***: strong activation of the receptor
Description: (§1) GloResponse™ CRE-luc2P HEK293T cells stably transfected with cAMP response element-driven luciferase (CRE-Luc) reporter (Promega, Madison, WI, USA) were transduced with human, macaque, pig, and mouse RXFP1 expression BacMam vectors according to the manufacturer’s protocol (Invitrogen) and incubated at room temperature for 2 h in the dark with occasional mixing. The volume of the cell culture was adjusted to 1000 cells/μl with DMEM + 10% FBS. Cells (3 μl, 3000 cells) were plated on 1536-well white solid-bottom TC plates and incubated overnight at 37C°, 5% CO2. Four hundred […] Ro 20-1724 (Sigma-Aldrich, St. Louis, MO, USA) in PBS (1 μl) was added in each well. The cells were treated with serial dilutions of either Forskolin (Sigma-Aldrich), ML290 ([5]) or porcine RLN at final concentrations’ range (57 μM–3.5 pM) for Forskolin and ML290, and (8.7 μM–1.8 pM, or 57 ng/μl–0.012 pg/μl] for RLN. After 2 h stimulation at 37°C, 4 μl of detection reagent from Amplite™ Luciferase reporter gene assay kit (AAT Bioquest, Sunnyvale, CA, USA) was added as a mix of 90% Component A, 5% Component C, and 5% Component D, and incubated at room temperature for 5 min. Luminescent signal was measured on Viewlux uHTS Microplate Imager (PerkinElmer, Santa Clara, CA, USA). The data were processed using GraphPad Software (San Diego, CA, USA).

HR-RXFP1 = assay: Direct HTRF cAMP assay, human/rabbit chimera HR-RXFP1; format: cell-based; conditions: transiently transfected HEK293T, % of hRXFP1 activation by 10 nM RLN
Description: (§2) The human, mouse, macaque, and pig RXFP1 cDNA constructs in baculovirus BacMam mammalian expression vector (Invitrogen, Carlsbad, CA, USA) were synthesized at the Eukaryotic Expression Group-Protein Expression laboratory (NCI, Frederick, MD, USA). The PCR primers for RT-PCR were designed to cover the full-length sequence of the open reading frame (ORF). PCR amplifications were performed with PfuUltra High-Fidelity DNA polymerase (Agilent Technologies, Santa Clara, CA, USA). Guinea pig RXFP1 (G-RXFP1) was amplified from guinea pig ovarian cDNA (Zyagen, San Diego, CA, USA). Rabbit RXFP1 (R1-RXFP1 and R2-RXFP1) cDNAs were amplified from rabbit uterus cDNA (Zyagen). All cloning was performed using the In-Fusion® HD Cloning Kit (Clontech Laboratories, Mountain View, CA, USA). Rabbit and guinea pig RXFP1s were cloned into pCR3.1 mammalian expression vector (Invitrogen). […]
(§3) Direct measurement of cAMP production was performed using the HTRF cAMP HiRange kit (CisBio, Bedford, MA, USA). […] The plates were incubated for 60 min at room temperature, and the signal was read on a FLUOstar Omega (BMG Labtech, Cary, NC, USA) plate reader. cAMP levels were calculated according to the manufacturer’s instructions against a standard curve. […]

GH-RXFP1 = assay: Direct HTRF cAMP assay, guinea pig/human chimera GH-RXFP1; format: cell-based; set-up: key to Activation of RXFP1 receptors: *: Weak; **: intermediate; ***: strong activation of the receptor
Description: as §2, §3

human RXFP1 = assay: CRE-Luc BacMam luciferase assay, human RXFP1; format: cell-based; set-up: key to Activation of RXFP1 receptors: *: Weak; **: intermediate; ***: strong activation of the receptor
Description: as §1

pig RXFP1 = assay: CRE-Luc BacMam luciferase assay, pig RXFP1; format: cell-based, pig (Sus scrofa); set-up: key to Activation of RXFP1 receptors: *: Weak; **: intermediate; ***: strong activation of the receptor
Description: as §1

R1-RXFP1 = assay: Indirect CRE-β-gal reporter cAMP assay, rabbit R1-RXFP1; format: cell-based, European rabbit (Oryctolagus cuniculus); conditions: 6 h at 37°C, % of 5 μM Forskolin response
Description: For the indirect cAMP assay, changes in cAMP signaling were measured by co-transfection of receptors with a CRE-β-galactosidase (CRE-β-gal) reporter construct ([11]). Cells were stimulated for 6 h at 37°C with RLN peptides or ML290 at various concentrations. A non-linear regression sigmoidal dose–response curve was then produced using GraphPad Prism. All experiments were conducted at least three times with three to four replicates each time.

mouse RXFP1 = assay: CRE-Luc BacMam luciferase assay, mouse RXFP1; format: cell-based; conditions: CRE-luc HEK293T, 2 h, highest concentrations of ML290 (range 57 μM–3.5 pM)
Description: as §1

[1] = tested on: modified mouse receptor with humanized ECL3; conditions: ECL3 amino acids mutated, ref [5]; cited from earlier work
Description: The rabbit and guinea pig receptors provide new structural templates for analysis of RLN and ML290 activation of RXFP1. […] Indeed, it was shown that primary binding of RLN to RXFP1 involve sites within LRR4, 5, 6, and 8 ([2]). In contrast, the 7TM region of RXFP1, which is the site of allosteric small-molecule agonist binding, is functional in rabbits. The opposite was true for guinea pig RXFP1: despite having the same ECL3 sequence as pig ...

mouse RXFP1 receptor = conditions: direct cAMP HTRF assay, ref [5]; cited from earlier work
R1H-RXFP1 and R2H-RXFP1 = assay: Direct HTRF cAMP assay, rabbit/human chimeras R1H- and R2H-RXFP1; format: cell-based; set-up: key to Activation of RXFP1 receptors: *: Weak; **: intermediate; ***: strong activation of the receptor
Description: as §2, §3

Activation of RXFP1 receptors (R1-RXFP1 and R2-RXFP1; Rabbit 1 and 2, summary grade, HEK293T cells): **
Activation of RXFP1 receptors (macaque RXFP1; Macaque receptor, summary grade, HEK293T cells): ***
Activation of RXFP1 receptors (GH-RXFP1; Guinea pig/human chimera, summary grade, HEK293T cells): *
Activation of RXFP1 receptors (human RXFP1; Human receptor, summary grade, HEK293T cells): ***
cAMP response (luciferase activity) (human RXFP1; human RXFP1, CRE-luc HEK293T, 2 h, ML290 57 μM–3.5 pM): responded strongly to ML290 stimulation
Activation of RXFP1 receptors (pig RXFP1; Pig receptor, summary grade, HEK293T cells): ***
Activation of RXFP1 receptors (R1H-RXFP1 and R2H-RXFP1; Rabbit 1(2)/human chimera, summary grade, HEK293T cells): **
SMILES: CC(C)Oc1ccccc1C(=O)Nc1ccccc1C(=O)Nc1cccc(S(=O)(=O)C(F)(F)F)c1 [ML290]
cAMP response, FLAG-tagged receptors (R1-RXFP1 and R2-RXFP1; FLAG-tagged R1- and R2-RXFP1, HTRF, 60 min, % of hRXFP1 activation by 10 nM RLN): produced a cAMP increase in cells transfected with both rabbit receptors, albeit with lesser efficacy than hRXFP1
statistical significance of response versus hRXFP1 (R1-RXFP1 and R2-RXFP1; R1- and R2-RXFP1, 10 nM relaxin peptides or 5 μM ML290, HTRF): statistically significant compared to hRXFP1, ***p < 0.001
cAMP response to 5 μM ML290 (R1-RXFP1 and R2-RXFP1; R1- and R2-RXFP1, 5 μM ML290, HTRF, transiently transfected HEK293T): responded to 5 μM of ML290
cAMP response (R1-RXFP1 and R2-RXFP1; R1-RXFP1 and R2-RXFP1, transiently transfected HEK293T, data not shown): generated an increase in cAMP
activation of rabbit RXFP1 (summary) (R1-RXFP1 and R2-RXFP1; rabbit RXFP1 variants, cAMP production, abstract/discussion): activated by ML290
cAMP response (luciferase activity) (macaque RXFP1; macaque RXFP1, CRE-luc HEK293T, 2 h, ML290 57 μM–3.5 pM, RLN 8.7 μM–1.8 pM): responded to relaxin and ML290 treatment; also recorded: responded strongly to ML290 stimulation; also recorded: fully activated by RLN and ML290
cAMP response (HR-RXFP1): all three receptors respond to ML290
cAMP response (GH-RXFP1; GH-RXFP1, transiently transfected HEK293T, HTRF, 60 min at 37°C, % of 10 μM Forskolin response): only partially restored ML290 activation; also recorded: ML290 responsiveness, albeit to a much lower level than in hRXFP1 (p < 0.001); also recorded: efficacy of ML290 stimulation was improved, however, it was still lower than in hRXFP1-transfected cells
cAMP response (luciferase activity) (pig RXFP1; pig RXFP1, CRE-luc HEK293T, 2 h, ML290 57 μM–3.5 pM, RLN 8.7 μM–1.8 pM): responded to relaxin and ML290 treatment; also recorded: responded strongly to ML290 stimulation; also recorded: fully activated by RLN and ML290
cAMP response (ML290), CRE-β-gal (R1-RXFP1): comparable to hRXFP1
cAMP response (luciferase activity) (mouse RXFP1): significant increase in luciferase activity; also recorded: activation of the CRE-reporter was observed with high-dose ML290 treatment on the mouse receptor
activation of mouse receptor with humanized ECL3 [1]: activated by ML290
activation of mouse RXFP1 (cAMP) (mouse RXFP1 receptor): does not activate the mouse receptor; also recorded: did not see an increase of cAMP; also recorded: no activation being seen in the direct HTRF cAMP assay; also recorded: did not activate the mouse RXFP1 receptor
cAMP response (R1H-RXFP1 and R2H-RXFP1; R1H- and R2H-RXFP1, HTRF, transiently transfected HEK293T, % of hRXFP1 activation by 10 nM RLN): the level of activation of R1H- and R2H-RXFP1 was higher than that of R1-, R2-, or HR-RXFP1-transfected cells

From article PMC4538381, “Activation of Relaxin Family Receptor 1 from Different Mammalian Species by Relaxin Peptide and Small-Molecule Agonist ML290” (Frontiers in Endocrinology, 2015)
